Measured values as given in patent US9746466B2, “Integrated compound discovery systems and methods” (Wake Forest University, priority 2011, dated 2017).

Biological target: thrombin (Homo sapiens, UniProt P00734)
Experiment: on-chip binding of TAMRA-labeled thrombin to bead-displayed oligonucleotides on Ion Torrent sequencing chips, fluorescence imaging
Settings: after washing, fluorescence imaging of wells, 20mer GT randomer library doped with thrombin aptamer
Description: Embodiments of the present invention reduce uncertainty due to amplification-based biases, blind spots and inference-based methods of deconvoluting candidate sequences through direct, on-chip analysis of candidate sequences and their target-binding properties. […] We obtained DNA libraries containing a 20mer GT randomer region flanked by Ion Torrent adaptor sequences (ITD, Coralville, Iowa). Libraries were doped with increasing amounts of the thrombin aptamer (with adaptors). […] The number of full-length reads correlates with the amount of thrombin aptamer doped into GT randomer libraries.

## GGTTGGTGTGGTTGG (DNA, backbone not given here) [thrombin aptamer]
  intensity of the TAMRA signal: highest
  residence time of the TAMRA signal: highest
